Assay [1] concerns S. mutans. Nature of the assay: Analysis of dental plaque reduction (S. mutans attached to glass tube wall, absorbance at 550 nm). The assay is classed as cell-based, Streptococcus mutans. On the procedure:
• 1) A brain heart infusion (BHI) broth (5 ml) containing 1% sucrose was added in 50 ml glass tube, and 50 μl of each of sample extracts by concentrations shown in Table 2 below was added. For a control group, sterilized water was used instead of sample extracts. • 2) S. mutans was inoculated to reach 10^5. • 3) The glass tube was cultured statically in an incubator at 37° C. for 24 hours while tilted at 30°. • 4) After culturing, 5 ml of 0.5 M NaOH solution was added to suspend the cells attached to the wall. • 5) One milliliter of suspension was taken and measured for absorbance at 550 nm. S. mutans strain was cultured statically for 24 hours after inoculation while tilted at 30°. When the culture medium was carefully poured out after the static culture, it was observed that bacteria were attached to the wall of the glass tube (FIG. 1, red arrow). Thereafter, the bacteria were suspended by addition of 0.5 M NaOH, and 1 ml of the suspended solution was measured for absorbance at 550 nm. As a result, there was a reduction in dental plaque from a BTEX-K concentration of 50 μg/ml.

For assay [2], the system named is S. mutans. Nature of the assay: Amount of organic acid produced in dental plaque (HPLC of S. mutans culture medium). It is filed as cell-based, Streptococcus mutans. To be noted: 48 h culture, high concentration (100 μg/ml). As for the experimental part:
• 1) To a brain heart infusion (BHI) broth (2 ml), 20 μl of each of sample extracts by concentrations in Table 3 below was added. For a control group, sterilized water was used instead of sample extracts. • 2) S. mutans was inoculated to reach 10^5-10^6. • 3) The cells were cultured in an incubator at 37° C. for 48 hours. • 4) The amount of the acid secreted in the medium was measured using HPLC.
**HPLC: analyzed by the joint equipment research lab of Dankook University Industry-Academia Cooperation (Citric, pyruvic, succinic, lactic, formic, acetic, propionic, isobutyric, butyric, and isovaleric acid).
S. mutans strain was inoculated into 2 ml of the brain heart infusion (BHI) liquid medium at a concentration of 1×10^5 CFU/ml, and a predetermined concentration of each sample was injected, followed by culturing for 48 hours. The culture was centrifuged at 13,000 rpm for 5 minutes, and then the supernatant was transferred to a new tube and filtered with a 0.45 μm syringe filter. Thereafter, HPLC analysis was performed. HPLC analysis conditions are as follows. Mobile phase (Isocratic elution): 10 mM potassium phosphate monobasic (pH 3, a phosphoric acid salt)/MeOH=(98/2), Column oven Temp.: 30° C., flow rate: 1 ml/min, wavelength: 220 nm, and injection amount: 10 μl

SMILES strings stand for the structures.

Turning to `CC(C)=CCC[C@](C)(O[C@@H]1O[C@H](CO)[C@@H](O)[C@H](O)[C@H]1O)[C@H]1CC[C@]2(C)[C@@H]1[C@H](O)C[C@@H]1[C@@]3(C)CC[C@H](O)C(C)(C)[C@@H]3CC[C@]12C` [ginsenoside compound K], the “growth of S. mutans strain” value in assay [1] (at 100 μg/ml, as seen in the dental plaque reduction experiment) is on record as “inhibited”. The “concentration at which dental plaque reduction was observed” value in assay [1] (summary statement, absorbance at 550 nm) is 20 µg/mL. Also, the “reduction in lactic acid content compared to the control group” value in assay [2] (HPLC, p<0.0001) is “approximately 2 fold”. Also, in assay [2] (vs control), the “HPLC peak at retention time of around 4.6 minutes (lactic acid)” value is listed as “decreased”.

(Values after patent US20250009632A1, “HEIGHT-ADJUSTABLE SPRINKLER” (BTGIN CO., LTD., priority 2021, published 2025).)
